Target: T1, human KDELR1 N54K (Homo sapiens, UniProt P24390, N54K)
T1 construct: expressed in transfected cells; host or cells: COS-7
Test: ER retrieval assay, KDELR1 N54K-GFP
Format: cell-based
Details: COS-7 cells
Description: To create KDELR1-GFP and KDELR2-GFP, the reading frames for Homo sapiens KDELR1 (Uniprot: P24390) and KDELR2 (Uniprot: P33947) were cloned into the pEF5/FRT low level mammalian expression vector with a C-terminal 20 amino acid linker made up of 5 copies of Gly-Ser-Ser-Ser followed by GFP. Specific point mutations were introduced using the Quickchange protocol (Stratagene) and are described in the key resources table and figures. To create the mScarlet-KDEL^sec ligand construct, mScarlet with an N-terminal hGH signal peptide and the 16 C-terminal residues of human BiP at its C-terminus, containing the KDEL signal, was cloned into the pcDNA3.1 vector. […] The Golgi marker protein TGN46 was detected by antibody (sheep anti-TGN46 AHP500G; AbD Serotec) and an Alexa 647 conjugated secondary anti-sheep secondary (A-21448, Invitrogen). In Figure 1d and e, endogenous KDELR was detected by antibody (mouse anti-KDELR ADI-VAA-PT048; Enzo Life Sciences) and Alexa 488 conjugated anti-mouse secondary antibody (A-21202, Invitrogen). For retrieval assays in other figures, KDELR-GFP fusion proteins were directly detected by fluorescence. The mScarlet-xDEL fusion proteins were directly detected by fluorescence. […] The fraction of KDEL receptor in the Golgi apparatus was calculated by dividing the Golgi signal by the total cell signal. […]

T1 sequence (P24390 whole entry N54K): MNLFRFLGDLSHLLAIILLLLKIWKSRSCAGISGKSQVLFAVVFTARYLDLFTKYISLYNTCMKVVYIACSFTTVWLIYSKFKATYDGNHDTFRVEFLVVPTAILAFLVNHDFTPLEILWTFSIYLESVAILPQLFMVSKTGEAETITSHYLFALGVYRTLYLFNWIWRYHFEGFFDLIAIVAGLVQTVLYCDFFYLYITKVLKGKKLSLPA

ADEL [pcDNA3.1 hGHss-mScarlet-H. sapiens BiP639-654K651A (ADEL^SEC), secreted mScarlet fusion with human BiP C-terminus, ADEL signal]
ligand-induced receptor retrieval to the ER (in words): did not result in ADEL or DDEL recognition
